According to ChEMBL document CHEMBL5543088, “Targeting G-rich sequence to regulate the transcription of murine double minute (MDM) genes in triple-negative breast cancers” (Eur J Med Chem, 2024):
One block for each compound: values may come before it. Activity calls are given as the source filed them. The rule behind the calls is not given here.

Key:
MDA-MB-231 = test: Inhibition of cell proliferation in human MDA-MB-231 cells by MTT assay; type: functional, cell-based
[1] = Inhibition of cell proliferation in human HL7702 cells by MTT assay; type: toxicity, cell-based; details: HL7702 (L02) cells
[2] = Inhibition of cell proliferation in HUVEC cells by MTT assay; type: toxicity, cell-based; details: human
HCC1806 = test: Inhibition of cell proliferation in human HCC1806 cells by MTT assay; type: functional, cell-based
HCC1937 [3] = test: Inhibition of cell proliferation in human HCC1937 cells by MTT assay; type: functional, cell-based
RNA [4] = test: Binding affinity to biotin-labeled G5 of MDMX (unknown origin) immobilized on SA biosensor assessed as dissociation constant by BLI assay; type: nucleic-acid assay, Homo sapiens
RNA [5] = test: Binding affinity to FAM/TAMRA-labeled G5 of MDMX (unknown origin) assessed as thermal stability by measuring increase in melting temperature by FRET assay; type: nucleic-acid assay; details: Homo sapiens
Quadruplex DNA [6] = test: Binding affinity to c-myc DNA G-quadruplex (unknown origin) assessed as thermal stability by measuring increase in melting temperature by FRET assay; type: nucleic-acid assay
Quadruplex RNA [7] = test: Binding affinity to NRAS RNA G-quadruplex (unknown origin) assessed as thermal stability by measuring increase in melting temperature by FRET assay; type: nucleic-acid assay
Quadruplex DNA [8] = test: Binding affinity to biotin-labeled c-myc DNA G-quadruplex (unknown origin) immobilized on SA biosensor assessed as dissociation constant by BLI assay; type: nucleic-acid assay
RNA [9] = test: Binding affinity to biotin-labeled G1 of MDM2 (unknown origin) immobilized on SA biosensor assessed as dissociation constant by BLI assay; type: nucleic-acid assay, Homo sapiens
RNA [10] = test: Binding affinity to FAM/TAMRA-labeled G1 of MDM2 (unknown origin) assessed as thermal stability by measuring increase in melting temperature by FRET assay; type: nucleic-acid assay; details: Homo sapiens
HCC1937 [11] = test: Effect on cell proliferation in human HCC1937 cells overexpressing BLM assessed as cell survival at 6 uM; type: functional, cell-based
HCC1937 [12] = test: Downregulation of MDM2 level in human HCC1937 cells upto 3 uM incubated for 24 hrs by Western blot analysis; type: functional, cell-based
HCC1937 [13] = test: Downregulation of MDMX level in human HCC1937 cells upto 3 uM incubated for 24 hrs by Western blot analysis; type: functional, cell-based
RNA [14] = test: Induction of G5 mutant of MDMX expressed in human HCC1937 cells upto 3 uM incubated for 24 hrs by luciferase reporter assay; type: cell-based
RNA [15] = test: Inhibition of G1 mutant of MDM2 expressed in human HCC1937 cells upto 3 uM incubated for 24 hrs by luciferase reporter assay; type: cell-based
RNA [16] = test: Binding affinity to TAMRA-labeled G1 mutant of MDM2 transfected in human HCC1937 cells at 3 uM incubated for 6 hrs by BG4 antibody based analysis; type: cell-based
DNA = test: Binding affinity to biotin-labeled ss26 DNA (unknown origin) immobilized on SA biosensor assessed as dissociation constant by BLI assay; type: nucleic-acid assay
HCC1937 [17] = test: Downregulation of MDM2 level in human HCC1937 cells upto 6 uM incubated for 24 hrs by Western blot analysis; type: functional, cell-based
HCC1937 [18] = test: Upregulation of MDMX level in human HCC1937 cells upto 6 uM incubated for 24 hrs by Western blot analysis; type: functional, cell-based
HCC1937 [19] = test: Inhibition of apoptosis in siMDM2-treated human HCC1937 cells at 6 uM (reference value: 55.8 %); type: functional
HCC1937 [20] = test: Effect on DNAPKcs phosphorylation at Ser2056 in human HCC1937 cells upto 6 uM incubated for 24 hrs by Western blot analysis; type: functional, cell-based
RNA [21] = test: Binding affinity to TAMRA-labeled wild-type G1 of MDM2 transfected in human HCC1937 cells at 3 uM incubated for 6 hrs by BG4 antibody based analysis; type: cell-based
HCC1937 [22] = test: Inhibition of cell proliferation in Nutlin3a-treated human HCC1937 cells by MTT assay; type: functional, cell-based
HCC1937 [23] = test: Downregulation of MDM2 level in siMDMX-treated human HCC1937 cells upto 6 uM by Western blot analysis; type: functional, cell-based
HCC1937 [24] = test: Induction of apoptosis in siMDM2-treated human HCC1937 cells assessed as increase in cleaved caspase-3 level upto 6 uM by Western blot analysis; type: functional, cell-based
HCC1937 [25] = test: Inhibition of cell proliferation in human HCC1937 cells assessed as decrease in cell survival at 6 uM relative to control; type: functional
RNA [26] = test: Inhibition of wild-type G1 of MDM2 expressed in human HCC1937 cells upto 3 uM incubated for 24 hrs by luciferase reporter assay; type: cell-based
HCC1937 [27] = test: Downregulation of MDM2 mRNA level in human HCC1937 cells upto 3 uM by qPCR analysis; type: functional, cell-based
dsDNA = test: Binding affinity to biotin-labeled ds26 DNA (unknown origin) immobilized on SA biosensor assessed as dissociation constant by BLI assay; type: nucleic-acid assay
RNA [28] = test: Binding affinity to TAMRA-labeled G5 mutant of MDMX transfected in human HCC1937 cells at 3 uM incubated for 6 hrs by BG4 antibody based analysis; type: cell-based
RNA [29] = test: Binding affinity to G5 of MDMX (unknown origin) at 10 uM by CD spectrum assay; type: nucleic-acid assay; details: Homo sapiens, filed as activator
HCC1937 [30] = test: Effect on H2AX phosphorylation at Ser139 in human HCC1937 cells upto 6 uM incubated for 24 hrs by Western blot analysis; type: functional, cell-based
RNA [31] = test: Binding affinity to TAMRA-labeled wild-type G5 of MDMX transfected in human HCC1937 cells at 3 uM incubated for 6 hrs by BG4 antibody based analysis; type: cell-based; details: filed as activator
RNA [32] = test: Binding affinity to G1 of MDM2 (unknown origin) at 10 uM by CD spectrum assay; type: nucleic-acid assay; details: Homo sapiens
HCC1937 [33] = test: Induction of apoptosis in siMDMX-treated human HCC1937 cells at 6 uM (reference value: 55.8 %); type: functional
RNA [34] = test: Induction of wild-type G5 of MDMX expressed in human HCC1937 cells upto 3 uM incubated for 24 hrs by luciferase reporter assay; type: cell-based; details: filed as activator
HCC1937 [35] = test: Effect on cell proliferation in human HCC1937 cells overexpressing BLM assessed as cell survival at 6 uM relative to control; type: functional; details: read-out: Activity
HCC1937 [36] = test: Upregulation of MDMX mRNA level in human HCC1937 cells upto 3 uM by qPCR analysis; type: functional, cell-based
HCC1937 [37] = test: Induction of apoptosis in human HCC1937 cells assessed as increase in cleaved caspase-3 level upto 6 uM incubated for 24 hrs by Western blot analysis; type: functional, cell-based
Quadruplex RNA [38] = test: Binding affinity to biotin-labeled NRAS RNA G-quadruplex (unknown origin) immobilized on SA biosensor assessed as dissociation constant by BLI assay; type: nucleic-acid assay
HCC1937 [39] = test: Upregulation of MDMX level in siMDM2-treated human HCC1937 cells upto 6 uM by Western blot analysis; type: functional, cell-based
HCC1937 [40] = test: Upregulation of MDMX level in siMDMX-treated human HCC1937 cells upto 6 uM by Western blot analysis; type: functional, cell-based
HCC1937 [41] = test: Induction of apoptosis in siMDMX-treated human HCC1937 cells assessed as increase in cleaved caspase-3 level upto 6 uM by Western blot analysis; type: functional, cell-based
HCC1937 [42] = test: Inhibition of cell proliferation in siMDM2-treated human HCC1937 cells by MTT assay; type: functional, cell-based; details: dose <= 6.0 µM
HCC1937 [43] = test: Inhibition of cell proliferation in siMDMX-treated human HCC1937 cells by MTT assay; type: functional, cell-based
RNA [44] = test: Inhibition of wild-type G1 of MDM2 expressed in human HCC1937 cells upto 1 uM incubated for 24 hrs by luciferase reporter assay; type: cell-based
RNA [45] = test: Induction of wild-type G5 of MDMX expressed in human HCC1937 cells upto 1 uM incubated for 24 hrs by luciferase reporter assay; type: cell-based; details: filed as activator

SMILES: c1ccc([P+](Cc2c3ccccc3cc3ccccc23)(c2ccccc2)c2ccccc2)cc1
Kd (RNA [4]): 8.8 µM
ΔTm (RNA [5]): 22 °C
ΔTm (Quadruplex DNA [6]): 16.5 °C
ΔTm (Quadruplex RNA [7]): 0.2 °C
Kd (Quadruplex DNA [8]): > 25 µM
Kd (RNA [9]): 10.6 µM
ΔTm (RNA [10]): 24 °C

SMILES: N=C(N)SCc1c2ccccc2cc2ccccc12
IC50 (MDA-MB-231): 6 µM
IC50 [1]: 20.7 µM
IC50 [2]: 9.6 µM
IC50 (HCC1806): 12.5 µM
IC50 (HCC1937 [3]): 16.8 µM

SMILES: N=C(N)SCc1ccc2ccccc2c1
IC50 (MDA-MB-231): > 50 µM
IC50 [1]: > 50 µM
IC50 [2]: > 50 µM
IC50 (HCC1806): > 50 µM
IC50 (HCC1937 [3]): > 50 µM

SMILES: N=C(N)SCc1c2ccccc2nc2ccccc12
IC50 (MDA-MB-231): > 50 µM
IC50 [1]: > 50 µM
IC50 [2]: > 50 µM
IC50 (HCC1806): > 50 µM
IC50 (HCC1937 [3]): > 50 µM

SMILES: Cc1c2ccccc2c(CSC(=N)N)c2ccccc12
IC50 (MDA-MB-231): 2.1 µM
IC50 [1]: 5 µM
IC50 [2]: 3.5 µM
IC50 (HCC1806): 6.9 µM
ΔTm (Quadruplex RNA [7]): -0.2 °C
IC50 (HCC1937 [3]): 6.4 µM
Activity (HCC1937 [11]): inactive
Activity (HCC1937 [12]): Active
Activity (HCC1937 [13]): Active

SMILES: N=C(N)SCc1c2ccccc2c(Br)c2ccccc12
IC50 (MDA-MB-231): 8.2 µM
IC50 [1]: 24.5 µM
IC50 [2]: 20.3 µM
IC50 (HCC1806): 3.5 µM
IC50 (HCC1937 [3]): 6.4 µM

SMILES: C[n+]1ccc(-c2c3nc(c(-c4cc[n+](C)cc4)c4ccc([nH]4)c(-c4cc[n+](C)cc4)c4ccc([nH]4)c(-c4cc[n+](C)cc4)c4nc2C=C4)C=C3)cc1
inhibition (RNA [44]): Active
Activity (RNA [45]): Active

Second part, led by results:

IC50 (MDA-MB-231): > 50 µM
IC50 (HCC1806): > 50 µM
IC50 (HCC1937 [3]): > 50 µM
SMILES: Cc1ccc(CSC(=N)N)cc1
IC50 [1]: > 50 µM
IC50 [2]: > 50 µM

IC50 (MDA-MB-231): > 50 µM
IC50 (HCC1806): > 50 µM
IC50 (HCC1937 [3]): > 50 µM
SMILES: N=C(N)SCc1ccc([N+](=O)[O-])cc1
IC50 [1]: > 50 µM
IC50 [2]: > 50 µM

IC50 (MDA-MB-231): > 50 µM
IC50 (HCC1806): > 50 µM
IC50 (HCC1937 [3]): > 50 µM
SMILES: N=C(N)SCc1cccc2ccccc12
IC50 [1]: > 50 µM
IC50 [2]: > 50 µM

Kd (RNA [4]): 7.3 µM
ΔTm (RNA [5]): 22 °C
ΔTm (Quadruplex DNA [6]): 17 °C
ΔTm (Quadruplex RNA [7]): -0.4 °C
Kd (Quadruplex DNA [8]): > 25 µM
Kd (RNA [9]): 9.8 µM
ΔTm (RNA [10]): 25 °C
SMILES: Cc1c2ccccc2c(C[P+](c2ccccc2)(c2ccccc2)c2ccccc2)c2ccccc12

IC50 (MDA-MB-231): 48 µM
IC50 (HCC1806): > 50 µM
IC50 (HCC1937 [3]): > 50 µM
SMILES: N=C(N)SCC1c2ccccc2CCc2ccccc21
IC50 [1]: > 50 µM
IC50 [2]: > 50 µM

Kd (DNA): 10.8 µM
ΔTm (RNA [5]): 30 °C
ΔTm (Quadruplex DNA [6]): 18 °C
Kd (dsDNA): 23.5 µM
Activity (RNA [29]): Active
ΔTm (Quadruplex RNA [7]): 0.1 °C
Kd (Quadruplex DNA [8]): 15.6 µM
ΔTm (RNA [10]): 33 °C
Activity (RNA [32]): Active
Kd (Quadruplex RNA [38]): 24 µM
SMILES: Brc1c2ccccc2c(C[P+](c2ccccc2)(c2ccccc2)c2ccccc2)c2ccccc12.[Br-]
Activity (RNA [14]): inactive
inhibition (RNA [15]): inactive
Activity (RNA [16]): inactive
Activity (HCC1937 [17]): Active
Activity (HCC1937 [18]): Active
inhibition at 6 µM (HCC1937 [19]): 30.6%
Activity (HCC1937 [20]): inactive
Activity (RNA [21]): Active
inhibition (HCC1937 [22]): inactive
Activity (HCC1937 [23]): Active
Activity (HCC1937 [24]): inactive
inhibition at 6 µM (HCC1937 [25]): 27.7%
inhibition (RNA [26]): Active
Activity (HCC1937 [27]): Active
Activity (RNA [28]): inactive
Activity (HCC1937 [30]): inactive
Activity (RNA [31]): Active
inhibition (HCC1937 [3]; dose <= 6.0 µM): Dose-Dependent Effect
Activity (HCC1937 [33]): ~70.4%
Activity (RNA [34]): Active
viability at 6 µM (HCC1937 [35]): 85.3%
Activity (HCC1937 [36]): Active
Activity (HCC1937 [37]): Active
Activity (HCC1937 [39]): Active
Activity (HCC1937 [40]): Active
Activity (HCC1937 [41]): Active
inhibition (HCC1937 [42]): inactive
inhibition (HCC1937 [43]): Active
